Data from patent US20090047269A1, “METABOLOMIC CANCER TARGETS” (The Regents of the University of Michigan, priority 2007, published 2009).

Key:
Format in all cases: cell-based
EGFR = experiment: Immunoblot analysis of EGFR phosphorylation and total EGFR; details: for total EGFR levels upon treatment: prostate epithelial cells
[1] = test system: immortalized benign RWPE prostate cells; experiment: Modified Boyden chamber matrigel invasion assay, RWPE cells; details: for increased invasion upon sarcosine addition compared to control / induction of invasion upon exogenous addition: benign prostate epithelial cells; for increased invasion upon sarcosine addition compared to control: alanine as control
Procedure: To investigate the biological role of sarcosine elevation in prostate cancer, prostate cancer cell lines VCaP, DU145, 22RV1 and LNCaP and their benign epithelial counterparts, primary benign prostate epithelial cells PrEC and immortalized benign RWPE prostate cells were used.
To determine if sarcosine plays a role in this process, it was added directly to non-invasive benign prostate epithelial cells. Alanine (an isomer of sarcosine) was used as a control for these experiments. […] The present invention is not limited to a particular mechanism. Indeed, an understanding of the mechanism is not necessary to practice the present invention.
To understand the role of sarcosine in prostate cancer progression, levels of the metabolite was measured in a panel of prostate-derived cell lines. […] The knock down studies were carried out using specific siRNA and the extent of target inhibition was assessed using Q-PCR. The in vitro Boyden chamber assay was used to qualify the modulation in the invasiveness of the knock down cells.

src = experiment: Immunoblot analysis of src phosphorylation; details: prostate epithelial cells (PrEC), compared to alanine-treated controls
Excerpt: (§1) Also total EGFR levels were elevated upon treatment with alanine or sarcosine. […] This observation was further strengthened using both antibody-mediated inhibition of EGFRactivity and siRNA-mediated knock-down of receptor levels.

p38MAPK = experiment: Immunoblot analysis of p38MAPK phosphorylation; details: sarcosine-treated PrEC samples
Excerpt: as §1

[2] = RWPE cells, control non-target siRNA-transfected

Compound: C[C@H](N)C(=O)O [alanine, reference compound]
- total EGFR levels upon treatment (EGFR): elevated

Compound: CNCC(=O)O [sarcosine]
- increased invasion upon sarcosine addition compared to control ([1]; 25 μM): 1.64 fold
- increased invasion upon sarcosine addition compared to control ([1]; 50 μM): 2.57 fold
- invasion upon amino acid addition, mean±SEM ([1]; RWPE cells with GNMT knockdown): 0.64±0.07
- invasion upon amino acid addition, mean±SEM [1, 2]: 0.65±0.05
- induction of invasion upon exogenous addition [1]: imparted an invasive phenotype
- total EGFR levels upon treatment (EGFR): elevated
- EGFR phosphorylation upon treatment (EGFR; prostate epithelial cells (PrEC), compared to alanine-treated controls): time-dependent increase
- src phosphorylation upon treatment (src): time-dependent increase
- p38MAPK phosphorylation upon treatment (p38MAPK): phosphorylation of p38MAPK

Compound: NCC(=O)O [glycine]
- invasion upon amino acid addition, mean±SEM ([1]; RWPE cells with GNMT knockdown): 0.20±0.03
- invasion upon amino acid addition, mean±SEM [1, 2]: 0.46±0.04
- induction of invasion upon exogenous addition [1]: induced invasion in these cells, although to a lesser degree than sarcosine
